Target: Kras G12D (Homo sapiens (Human), UniProt P01116, G12D)
Assay: HTRF-based nucleotide exchange assay detecting GTP binding to K-Ras
Type: biochemical
Conditions: SOS1 (aa 564-1049), fluorescently labelled GTP, compound incubated 1 h at RT
Experimental: Kras G12D was mixed with a-GST Tb antibody (1.5× solution) and 10 uL was delivered to reaction wells. A mixture of Kras G12D/aGST-Tb Ab/compound mixture was incubated for 1 h at RT. A 3× solution of SOS1 (aa 564-1049) and fluorescently labelled GTP* was prepared in reaction buffer and 5 μL of SOS1/GTP* solution was added to reaction well to initiate the exchange reaction. An IC50 was determined using a sigmoidal dose response (variable slope) equation. Note: Assay IC50 data are designated within the following ranges: A: ≤10 nM, B: >10 nM to ≤1000 nM, C: >1000 nM

Kras G12D, sequence (P01116-2 other isoform, or with tags, fused parts or gaps G12D): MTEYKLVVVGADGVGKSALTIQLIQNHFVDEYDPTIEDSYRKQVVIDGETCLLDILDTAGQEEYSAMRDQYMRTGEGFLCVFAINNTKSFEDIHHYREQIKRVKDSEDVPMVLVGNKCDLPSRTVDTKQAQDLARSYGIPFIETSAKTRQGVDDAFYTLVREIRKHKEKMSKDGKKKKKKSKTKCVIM

Compound: C#Cc1cccc2cc(O)cc(-c3ncc4c(N5CC6COCC(C5)N6)nc(OCC56CCCN5CCC6)nc4c3F)c12 [Example 4, 4-(4-(3-oxa-7,9-diazabicyclo[3.3.1]nonan-7-yl)-8-fluoro-2-((tetrahydro-1H-pyrrolizin-7a(5H)-yl)methoxy)pyrido[4,3-d]pyrimidin-7-yl)-5-ethynylnaphthalen-2-ol]
- IC50: ≤ 10 nM

Compound: C#Cc1cccc2cc(O)cc(-c3ncc4c(N5C[C@@H]6C[C@H]5CN6)nc(OCC56CCCN5CCC6)nc4c3F)c12 (stereo in doubt) [Example 6, 4-(4-((1S,4S)-2,5-diazabicyclo[2.2.1]heptan-2-yl)-8-fluoro-2-((tetrahydro-1H-pyrrolizin-7a(5H)-yl)methoxy)pyrido[4,3-d]pyrimidin-7-yl)-5-ethynylnaphthalen-2-ol]
- IC50: ≤ 10 nM

Compound: C#Cc1cccc2cc(O)cc(-c3ncc4c(N5CC6CCCC(C5)N6)nc(OCC56CCCN5CCC6)nc4c3F)c12 [Example 7, 4-(4-(3,9-diazabicyclo[3.3.1]nonan-3-yl)-8-fluoro-2-((tetrahydro-1H-pyrrolizin-7a(5H)-yl)methoxy)pyrido[4,3-d]pyrimidin-7-yl)-5-ethynylnaphthalen-2-ol]
- IC50: ≤ 10 nM

Compound: C[C@H]1CN(c2nc(OCC34CCCN3CCC4)nc3c(F)c(-c4cccc5cccc(Cl)c45)ncc23)C[C@H](C)N1 [Example 2, 7-(8-chloronaphthalen-1-yl)-4-((3S,5S)-3,5-dimethylpiperazin-1-yl)-8-fluoro-2-((tetrahydro-1H-pyrrolizin-7a(5H)-yl)methoxy)pyrido[4,3-d]pyrimidine]
- IC50: 10 to 1000 nM

Compound: Fc1c(-c2cccc3cccc(Cl)c23)ncc2c(N3C[C@H]4CC[C@@H](C3)N4)nc(OCC34CCCN3CCC4)nc12 [Example 3, 4-((1R,5S)-3,8-diazabicyclo[3.2.1]octan-3-yl)-7-(8-chloronaphthalen-1-yl)-8-fluoro-2-((tetrahydro-1H-pyrrolizin-7a(5H)-yl)methoxy)pyrido[4,3-d]pyrimidine]
- IC50: ≤ 10 nM

Compound: C#Cc1cccc2cc(O)cc(-c3ncc4c(N5CC6CC(C5)N6)nc(OCC56CCCN5CCC6)nc4c3F)c12 [Example 8, 4-[4-(3,6-diazabicyclo[3.1.1]heptan-3-yl)-8-fluoro-2-(1,2,3,5,6,7-hexahydropyrrolizin-8-ylmethoxy)pyrido[4,3-d]pyrimidin-7-yl]-5-ethynyl-naphthalen-2-ol]
- IC50: ≤ 10 nM

Compound: Fc1c(-c2cccc3cccc(Cl)c23)ncc2c(N3CC4CNCC4C3)nc(OCC34CCCN3CCC4)nc12 [Example 5, 4-[(3aR, 6aS)-2,3,3a,4,6,6a-hexahydro-1H-pyrrolo[3,4-c]pyrrol-5-yl]-7-(8-chloro-1-naphthyl)-8-fluoro-2-(1,2,3,5,6,7-hexahydropyrrolizin-8-ylmethoxy)pyrido[4,3-d]pyrimidine]
- IC50: > 1000 nM

Compound: C[C@@H]1CN(c2nc(OCC34CCCN3CCC4)nc3c(F)c(-c4cccc5cccc(Cl)c45)ncc23)C[C@H](C)N1 [Example 1, 7-(8-chloronaphthalen-1-yl)-4-((3R,5S)-3,5-dimethylpiperazin-1-yl)-8-fluoro-2-((tetrahydro-1H-pyrrolizin-7a(5H)-yl)methoxy)pyrido[4,3-d]pyrimidine]
- IC50: > 1000 nM

— patent US20250263423A1, “INHIBITORS OF RAS ONCOPROTEINS” (BridGene Biosciences, Inc., priority 2021, published 2025)
